According to patent publication EP4745124A1, “NAPHTHALIMIDE-BASED CORONAVIRUS PAPAIN-LIKE PROTEASE INHIBITOR” (Guangzhou National Laboratory, priority 2023, dated 2025):

What follows are molecules tested against T1, SARS-CoV-2 PL^Pro (Severe acute respiratory syndrome coronavirus 2, UniProt P0DTD1) (assay: biochemical). Details: SARS-CoV-2 PLPro catalytic domain (746-1060), 10 minutes pre-incubation; read-out: PLpro IC50.
T1 construct: SARS-CoV-2 PL^Pro catalytic domain (746-1060); made in house

`Cc1ccc(N2C[C@H]3C[C@@H]2CN3C)cc1C(=O)NC1(c2ccc3c4c(cccc24)C(=O)N3C)CC1` [Compound P40, 2-Methyl-N-(1-(1-methyl-2-oxo-1,2-dihydrobenzo[cd]indol-6-yl)cyclopropyl)-5-((1R,4R)-5-methyl-2,5-diazabicyclo[2. 2.1]heptan-2-yl)benzamide] and `Cc1ccc(N2CC(N3CCC(O)C3)C2)cc1C(=O)NC1(c2ccc3c4c(cccc24)C(=O)N3C)CC1` (stereo not shown) [Compound P43, 5-(3-(3-hydroxypyrrolidin-1-yl)azetidin-1-yl)-2-methyl-N-(1-(1-methyl-2-oxo-1,2-dihydrobenzo[cd]indol-6-yl)cyclopropyl)benzamide] cannot be ordered by IC50: < 40 nM for the first, < 40 nM for the second.

`Cc1ccc(N2CCN(CC(C)O)CC2)cc1C(=O)NC1(c2ccc3c4c(cccc24)C(=O)N3C)CC1` (stereo not shown) [Compound P41, 5-(4-(2-hydroxypropyl)piperazin-1-yl)-2-methyl-N-(1-(1-methyl-2-oxo-1,2-dihydrobenzo[cd]indol-6-yl)cyclopropyl)be nzamide] and `Cc1ccc(N2CCN(CC(C)(C)O)CC2)cc1C(=O)NC1(c2ccc3c4c(cccc24)C(=O)N3C)CC1` [Compound P49, 5-(4-(2-Hydroxy-2-methylpropyl)piperazin-1-yl)-2-methyl-N-(1-(1-methyl-2-oxo-1,2-dihydrobenzo[cd]indol-6-yl)cyclopropyl)benzamide] cannot be ordered by IC50: < 40 nM for the first, < 40 nM for the second.

Compared with `Cc1ccc(N2CC(N3CCN(C)C(=O)C3)C2)cc1C(=O)NC1(c2ccc3c4c(cccc24)C(=O)N3C)CC1` [Compound P44, 2-Methyl-N-(1-(1-methyl-2-oxo-1,2-dihydrobenzo[cd]indol-6-yl)cyclopropyl)-5-(3-(4-methyl-3-oxopiperazin-1-yl)azetidin-1-yl)benzamide], `Cc1ccc(N2CC(N3CCCC3)C2)cc1C(=O)NC1(c2ccc3c4c(cccc24)C(=O)N3C)CC1` [Compound P45, 2-methyl-N-(1-(1-methyl-2-oxo-1,2-dihydrobenzo[cd]indol-6-yl)cyclopropyl)-5-(3-(pyrrolidin-1-yl)azetidin-1-yl)benzamide] is lower in IC50: 100 to 1000 nM for the first, < 40 nM for the second.

First: Cc1ccc(N2CCC(N3CCCC3)C(F)(F)C2)cc1C(=O)NC1(c2ccc3c4c(cccc24)C(=O)N3C)CC1 (stereo not shown) [Compound P48, 5-(3,3-difluoro-4-(pyrrolidin-1-yl)piperidin-1-yl)-2-methyl-N-(1-(1-methyl-2-oxo-1,2-dihydrobenzo[cd]indol-6-yl)cyclopropyl)benzamide]
Second: Cc1ccc(N2CCC(N3CCCCC3)C2)cc1C(=O)NC1(c2ccc3c4c(cccc24)C(=O)N3C)CC1 (stereo not shown) [Compound P50, 2-Methyl-N-(1-(1-methyl-2-oxo-1,2-dihydrobenzo[cd]indol-6-yl)cyclopropyl)-5-(3-(piperidin-1-yl)pyrrolidin-1-yl)benz amide]
The IC50 of the first is higher: 100 to 1000 nM for the first, < 40 nM for the second. The second is the more potent here.

With `Cc1ccc(N2CCN(CCN(C)C)CC2)cc1C(=O)NC1(c2ccc3c4c(cccc24)C(=O)N3C)CC1` [Compound P52, 5-(4-(2-(Dimethylamino)ethyl)piperazin-1-yl)-2-methyl-N-(1-(1-methyl-2-oxo-1,2-dihydrobenzo[cd]indol-6-yl)cyclopropyl)benzamide] the IC50 was 100 to 1000 nM.

Same assay, conditions: read-out: PLpro IC50

First: Cc1ccc(N2CC(N3CCC3)C2)cc1C(=O)NC1(c2ccc3c4c(cccc24)C(=O)N3C)CC1 [Compound P42, 5-([1,3'-diazetidin]-1'-yl)-2-methyl-N-(1-(1-methyl-2-oxo-1,2-dihydrobenzo[cd]indol-6-yl)cyclopropyl)benzamide]
Second: Cc1ccc(N2CC(N3CCOCC3)C2)cc1C(=O)NC1(c2ccc3c4c(cccc24)C(=O)N3C)CC1 [Compound P46, 2-methyl-N-(1-(1-methyl-2-oxo-1,2-dihydrobenzo[cd]indol-6-yl)cyclopropyl)-5-(3-morpholinazetidin-1-yl)benzamide]
The IC50 of the first is lower: < 40 nM for the first, 100 to 1000 nM for the second. The first is the more potent here.

Compared with `Cc1ccc(N2CC3CCN(C)C3C2)cc1C(=O)NC1(c2ccc3c4c(cccc24)C(=O)N3C)CC1` (stereo not shown) [Compound P47], `Cc1ccc(N2CCN(CCCS(C)(=O)=O)CC2)cc1C(=O)NC1(c2ccc3c4c(cccc24)C(=O)N3C)CC1` [Compound P51] is higher in IC50: < 40 nM for the first, 40 to 100 nM for the second.
